Common to all, as to assay: NCI-60 cell line screen, 48 h
The test system of assay [1] is A549 NSCLC.
The subject of assay [2] is SN12C renal.
For assay [3], the system named is SK-MEL-5 melanoma.
Assay [4] has as its system OVCAR-4 ovarian.
Assay [5] has as its system IGROV1 ovarian.
For assay [6], the system named is TK-10 renal.
Assay [7] deals with NCI-H460 lung.
The test system of assay [8] is EKVX NSCLC.
Assay [9] deals with COLO 205 colon.
For assay [10], the system named is ACHN renal.

Where “and” joins values, the source holds several entries; their conditions need not be identical. Equal values may be shown once.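 Dose response: 5 concentrations. Exposure: 48 h. Format: 96-well plates. Endpoint: linear interpolation; highest concentration if not reached. GI50: concentration for 50% inhibition of growth. TGI is the concentration that stops growth completely.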 Where only a bound is given, the exact number is not on record here.

As to `COc1ccccc1N=Nc1c(O)ccc2ccccc12`, the TGI in [1] was over 100 µM; in assay [2] it was over 100 µM; in [3], > 89.9 µM and 59.2 µM; in assay [4] it was 62.9 µM and 95.2 µM; in assay [5], over 100 µM; in assay [6] it was 31.8 µM and 59.1 µM. The TGI is 38.1 µM in [7]; 36.2 µM and 96.1 µM in assay [8]; over 100 µM in [9]; 27.2 µM in [10]. In addition, the GI50 was 10.2 µM and 35.4 µM in assay [4]; 3.93 µM and 35.4 µM in assay [5]; 4.42 µM and 19.5 µM in assay [8].

Turning to `COc1cc2c(cc1O)NC(=O)[C@@H]1C[C@@H](O)CN1C2=O`, the TGI in [1], in assay [2], in [3], in [4], in assay [5] and in assay [6] was over 100 µM each time. Besides, the TGI in [7], in assay [8], in assay [9] and in assay [10] was over 100 µM throughout.

As for `COc1ccc(O[C@H](CO)C[C@@H]2COC(C)(C)O2)cc1`, the TGI in assay [1], in assay [2], in assay [3], in assay [4], in assay [5] and in assay [6] was over 100 µM throughout. The TGI in [7], in assay [8], in [9] and in assay [10] was over 100 µM in each case.

In the case of `CCCCCCCCCCCC1=C(O)C(=O)C(CC2=C(O)C(=O)C(CCCCCCCCCCC)=C(O)C2=O)=C(O)C1=O`, the TGI in assay [1], in assay [2], in assay [3], in [4], in [5] and in assay [6] was over 100 µM throughout. Further, the TGI in assay [7], in [8], in [9] and in [10] was over 100 µM throughout.

Consider `CCCCCCCCCCCCCCCCNc1nc(=O)n(C2OC(C)C(O)C2O)cc1F` (centres undefined), for which the TGI is 48 µM in assay [1]; 40.6 µM in assay [2]; 43.4 µM in assay [3]; 50.8 µM in assay [4]; 37.6 µM in assay [5]; 30.6 µM in assay [6]. Further, the TGI was found to be 33.9 µM in [7], 35.3 µM in assay [8], 58.7 µM in assay [9] and 29 µM in [10].

`C/C(=N\NC(=S)NC(C)(C)C)c1nc2ncccc2[nH]1`: the TGI in assay [1] was 43.4 µM; in [2] it was over 100 µM; in [3], 14.1 µM; in [4], over 100 µM; in assay [5], 50.6 µM; in assay [6], over 100 µM. Moreover, the TGI in assay [7] was 55 µM; in [8] it was over 65 µM; in assay [9], over 31.6 µM; in assay [10] it was over 100 µM.

With `NC(=O)CSc1nc2ccccc2c(=O)n1N`, the TGI in [1], in assay [2], in assay [3], in assay [4], in [5] and in [6] was over 100 µM in each case. Besides, the TGI in assay [7], in assay [8], in assay [9] and in assay [10] was over 100 µM each time.

As for `CN1C(c2ccccc2)CC(O)CC1c1ccccc1` (centres undefined), the TGI in [1], in assay [2], in [3], in [4], in assay [5] and in [6] was over 100 µM in each case. The TGI in [7], in assay [8], in assay [9] and in assay [10] was over 100 µM throughout.

In the case of `O=C(Nc1ccc(-n2cc(-c3ccncc3)c(-c3ccc(O)c(Cl)c3)n2)cc1)Nc1cc(C(F)(F)F)cc(C(F)(F)F)c1`, the GI50 was 4.06 µM in [1]; 4.12 µM in assay [2]; 4.08 µM in assay [3]; 2.92 µM in assay [4]; 4.61 µM in [5]; 3.55 µM in [6]. The GI50 in assay [7] was 3.69 µM; in [8], 3.57 µM; in assay [9], 2.62 µM; in [10], 3.24 µM. The TGI in [1] is 15.5 µM; in [2], 16.3 µM; in [3] it was 15.5 µM; in assay [4], 10.7 µM; in assay [5], 18.9 µM; in assay [6], 13.6 µM. The TGI in assay [7] is 14.6 µM; in [8], 15.6 µM; in assay [9], 7.83 µM; in assay [10] it was 11.7 µM.

Regarding `CC[C@]1(c2ccc3c(c2)OCO3)C=[N+]([O-])O[C@H](OC2CCCC2(c2ccccc2)c2ccccc2)[C@@H]1OC(C)=O` (some centres undefined), the TGI in [1] was 11.4 µM; in assay [2], over 22.3 µM; in assay [3], 3.54 µM; in assay [4], 10.1 µM; in assay [5], over 21.5 µM; in assay [6], 11.6 µM. Moreover, the TGI came out at 4.91 µM in assay [7], 12.8 µM in [8], 5.07 µM in assay [9] and 9.75 µM in assay [10].

For the compound `COc1ccc(S(=O)(=O)NC(CCC(=O)NC(N)=O)C(=O)NC(N)=O)cc1` (centres undefined), the TGI in assay [1], in [2], in assay [3], in assay [4], in assay [5] and in assay [6] was over 100 µM in each case. Moreover, the TGI in [7], in assay [8], in [9] and in assay [10] was over 100 µM in each case.

In the case of `O=C1Nc2noc(=O)nc2NO1`, the TGI in [1], in assay [2], in assay [3], in [4], in assay [5] and in assay [6] was over 200 µM throughout. The TGI in [7], in assay [8], in [9] and in [10] was over 200 µM throughout.

Consider `C/C(=N/NC(=S)Nc1ccc(C)cc1)c1ccccn1`, for which the TGI is 14 µM in assay [1]; 7.65 µM in assay [2]; 2.29 µM in [3]; 17.2 µM in [4]; 13.6 µM in [5]; 6.77 µM in assay [6]. The TGI stood at 7.95 µM in assay [7], 5.12 µM in assay [8], 1.95 µM in [9] and 11.9 µM in [10].

Consider `O=C(O)C1CCC(=O)N1C(=O)COc1cc(Cl)c(Cl)cc1Cl` (centres undefined), for which the TGI in assay [1], in assay [2], in assay [3], in [4], in assay [5] and in [6] was over 100 µM each time. The TGI in assay [7], in [8], in assay [9] and in assay [10] was over 100 µM throughout.

For the compound `CC(=O)O[C@H]1CC[C@@H](OC(C)=O)[C@H]2[C@H](O)[C@H](O)[C@@H]1n1c(=O)n(-c3ccccc3)c(=O)n12`, the TGI in [1], in assay [2], in assay [3], in assay [4], in assay [5] and in [6] was over 100 µM each time. The TGI in assay [8], in assay [9] and in assay [10] was over 100 µM each time.

In the case of `Cn1c2c(c3c(=O)[nH]ncc31)Cc1ccccc1-2`, the TGI in assay [1] was over 100 µM; in assay [2], 47.9 µM; in assay [3] it was 34.9 µM; in assay [4], over 100 µM; in assay [5], 33.7 µM; in assay [6] it was 29.3 µM. For the same compound, the TGI in [7] was 15.1 µM; in assay [8], over 100 µM; in [9] it was 54.3 µM; in assay [10], 34.7 µM.

Regarding `Cc1nc(C(=Nc2ccc(Br)cc2)Nn2cnnc2)no1`, the TGI in [1], in assay [3], in assay [4], in assay [5], in assay [7] and in assay [8] was over 100 µM each time. In addition, the TGI in assay [9] and in assay [10] was over 100 µM throughout.

For the compound `COC1=C(OC)C(=O)C(Cc2c(Cl)nc3sccn23)=C(C)C1=O`, the TGI in assay [1] came to 25.1 µM; in [2], 26.2 µM; in assay [3], 17.5 µM; in assay [4], 18.8 µM; in [5], 29.1 µM; in [6], 26.6 µM. For the same compound, the TGI in assay [7] came out at 25.4 µM; in [8], 20.4 µM; in assay [9], 29.2 µM; in assay [10], 27.8 µM.

For the compound `CC(=O)Oc1cc2c(cc1OCC(F)(F)F)[C@H]1CC[C@]3(C)[C@@H](OC(C)=O)CC[C@H]3[C@@H]1CC2=O`, the TGI in assay [1] was 77.7 µM; in assay [2], 57.6 µM; in [3], 49.2 µM; in assay [4] it was 63.8 µM; in [5], over 66.8 µM; in [6], 46.2 µM. Further, the TGI is over 100 µM in assay [7], over 72.1 µM in [8], 89.6 µM in assay [9] and 60 µM in [10].

With `Cc1ccc(C(=O)Nc2ccc(CP(=O)(O)O)cc2CP(=O)(O)O)cc1N`, the TGI in assay [1], in assay [2], in assay [3], in assay [4], in assay [5] and in assay [6] was over 100 µM each time. Also, the TGI in assay [8], in assay [9] and in [10] was over 100 µM each time.

`Clc1[nH]nc2ccccc12`: the TGI in assay [1], in assay [2], in assay [3], in assay [4], in [5] and in [6] was over 100 µM in each case. For the same compound, the TGI in assay [7], in assay [8], in [9] and in assay [10] was over 100 µM throughout.

For `CC(=O)OC12c3ccccc3C(c3ccccc31)C1C(=O)N(N=C(C)C)C(=O)C12` (centres undefined), the TGI in [1], in assay [2], in [3], in [4], in [5] and in [6] was over 100 µM each time. Further, the TGI in assay [8] and in [9] was over 100 µM throughout.

Take `COc1cccc2c(=O)oc(-c3ccccc3C)nc12`: the TGI was over 100 µM in assay [1]; 69.4 µM in assay [2]; 57.7 µM in assay [3]; 70.6 µM in [4]; 96.8 µM in assay [5]; over 100 µM in [6]. In addition, the TGI in assay [7], in [8], in assay [9] and in assay [10] was over 100 µM each time.

As for `CN(C)c1cccc2c(S(=O)(=O)NCCN)cccc12`, the TGI in assay [1] is over 100 µM; in assay [2] it was over 100 µM; in assay [3], over 100 µM; in assay [4] it was over 100 µM; in assay [5], 91.9 µM; in assay [7], over 100 µM. Further, the TGI in assay [8], in assay [9] and in assay [10] was over 100 µM in each case.

For the compound `COC(=O)Nc1cc(OCCCOC(C)=O)c2[nH]c(C(=O)OC)cc2c1C[C@H](O)CO`, the TGI in assay [1], in assay [2], in assay [3], in [4], in assay [5] and in [6] was over 100 µM each time. The TGI in [8], in assay [9] and in assay [10] was over 100 µM in each case.

With `Nc1c(C(=O)O)c2ccc([N+](=O)[O-])cc2c(=O)n1-c1nc2ccccc2s1`, the TGI in assay [1], in [2], in assay [3], in [4], in assay [5] and in assay [7] was over 100 µM throughout. The TGI in assay [8], in assay [9] and in assay [10] was over 100 µM in each case.

The record behind these values is PubChem BioAssay (NCI).
